Assay results from patent US8952024B2, “Herbicidal pyrimidone derivatives” (E I du Pont de Nemours and Company, priority 2009, dated 2015).

What was measured:
Assay type in all cases: in vivo
[1] = test system: goosegrass (Eleusine indica); assay: Test B pre-/postemergence plant response
Method in brief: (§1)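 Test compounds, formulated in a non-phytotoxic solvent mixture with surfactant, are applied to the soil surface (loam and sand blend) right after seeding, or sprayed over plants at the 1- to 4-leaf stage grown in peat moss/vermiculite medium. After 13 to 15 days under glasshouse conditions, each species is scored visually from 0 (no effect) to 100 (complete control) against controls.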

[2] = test system: large crabgrass (Digitaria sanguinalis); assay: Test B pre-/postemergence plant response
Method in brief: as §1

[3] = test system: morningglory (Ipomoea coccinea); assay: Test B pre-/postemergence plant response
Method in brief: as §1

[4] = test system: wheat (Triticum aestivum); assay: Test B pre-/postemergence plant response
Method in brief: as §1

[5] = test system: Italian ryegrass (Lolium multiflorum); assay: Test B pre-/postemergence plant response
Method in brief: as §1

[6] = test system: velvetleaf (Abutilon theophrasti); assay: Test B pre-/postemergence plant response
Method in brief: as §1

[7] = test system: downy bromegrass (Bromus tectorum); assay: Test B pre-/postemergence plant response
Method in brief: as §1

[8] = test system: woolly cupgrass (Eriochloa villosa); assay: Test B pre-/postemergence plant response
Method in brief: as §1

[9] = test system: yellow nutsedge (Cyperus esculentus); assay: Test B pre-/postemergence plant response
Method in brief: as §1

[10] = test system: Surinam grass (Brachiaria decumbens); assay: Test B pre-/postemergence plant response
Method in brief: as §1

[11] = test system: blackgrass (Alopecurus myosuroides); assay: Test B pre-/postemergence plant response
Method in brief: as §1

[12] = test system: barnyardgrass (Echinochloa crus-galli); assay: Test A pre-/postemergence plant response
Method in brief: (§2)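 Approximately ten days after concurrent pre- and postemergence spraying in a greenhouse, plants were compared with untreated controls and rated visually for injury, 0 = no effect to 100 = complete control. Preemergence spray was directed onto loam/sand soil; postemergence targeted 1–2 leaf seedlings.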

[13] = test system: pigweed (Amaranthus retroflexus); assay: Test A pre-/postemergence plant response
Method in brief: as §2

[14] = 31 g ai/ha, postemergence, scale 0 to 100, 0 is no effect, 100 is complete control
[15] = 62 g ai/ha, postemergence, 0 is no effect, 100 is complete control, 13 to 15 days
[16] = Postemergence, 125 g ai/ha, visual rating after 13 to 15 days, scale 0 (no effect) to 100 (complete control)
[17] = Postemergence, 250 g ai/ha, scale 0 to 100 (0 no effect, 100 complete control)
[18] = Postemergence, 125 g ai/ha, visual injury, 0 to 100 scale (0 no effect, 100 complete control), approx. ten days
[19] = Postemergence, 500 g ai/ha, 0 to 100 scale, 0 = no effect, 100 = complete control, approx. ten days
[20] = Preemergence, 125 g ai/ha, 0 to 100 scale, 0 = no effect, 100 = complete control
[21] = Preemergence, 500 g ai/ha, visual injury, 0 to 100 scale (0 no effect, 100 complete control), approx. ten days
[22] = 250 g ai/ha, Preemergence, 0 to 100 scale
[23] = Postemergence, 62 g ai/ha, scale 0 (no effect) to 100 (complete control), 13 to 15 days
[24] = Postemergence, 250 g ai/ha, scale 0 to 100
[25] = Preemergence, 31 g ai/ha, scale 0 to 100 (0 no effect, 100 complete control)
[26] = Preemergence, 125 g ai/ha, 0 to 100 scale
[27] = Postemergence, 31 g ai/ha, scale 0 to 100 (0 no effect, 100 complete control)
[28] = Preemergence, 62 g ai/ha, scale 0 to 100, 0 no effect, 100 complete control

For `O=C1CCCC(O)=C1C(=O)c1cnc(-c2ccc(Br)cc2)n(-c2ccccc2)c1=O` [Compound 70], the “Plant response rating, Goosegrass” value [1, 14] was 75, the “Goosegrass plant response rating (0 to 100 scale)” value [1, 15] was 85 and the “Plant response rating, Goosegrass” value [1, 16] was 85. For the same compound, the “Plant response rating, Goosegrass” value [1, 17] was 95, the “Plant response rating, Crabgrass, Large” value [2, 14] was 80 and the “Crabgrass, Large plant response rating (0 to 100 scale)” value [2, 15] was 90. For the same compound, the “Plant response rating, Crabgrass, Large” value [2, 16] was 95, the “Plant response rating, Crabgrass, Large” value [2, 17] was 100 and the “Plant response rating, Morningglory” value [3, 14] was 98. For the same compound, the “Morningglory plant response rating (0 to 100 scale)” value [3, 15] was 100, the “Plant response rating, Morningglory” value [3, 16] was 100 and the “Plant response rating, Morningglory” value [3, 17] was 100. The “Plant response rating, Wheat” value [4, 14] was 5, the “Wheat plant response rating (0 to 100 scale)” value [4, 15] was 20 and the “Plant response rating, Wheat” value [4, 16] was 35. For the same compound, the “Plant response rating, Wheat” value [4, 17] was 35, the “Plant response rating, Ryegrass, Italian” value [5, 14] was 10 and the “Ryegrass, Italian plant response rating (0 to 100 scale)” value [5, 15] was 10. The “Plant response rating, Ryegrass, Italian” value [5, 16] was 50, the “Plant response rating, Ryegrass, Italian” value [5, 17] was 70 and the “Plant response rating, Velvetleaf” value [6, 14] was 75. For the same compound, the “Velvetleaf plant response rating (0 to 100 scale)” value [6, 15] was 80, the “Plant response rating, Velvetleaf” value [6, 16] was 100 and the “Plant response rating, Velvetleaf” value [6, 17] was 100. For the same compound, the “Plant response rating, Bromegrass, Downy” value [7, 14] was 10, the “Bromegrass, Downy plant response rating (0 to 100 scale)” value [7, 15] was 50 and the “Plant response rating, Bromegrass, Downy” value [7, 16] was 70. For the same compound, the “Plant response rating, Bromegrass, Downy” value [7, 17] was 70, the “Plant response rating, Cupgrass, Woolly” value [8, 14] was 45 and the “Cupgrass, Woolly plant response rating (0 to 100 scale)” value [8, 15] was 65. The “Plant response rating, Cupgrass, Woolly” value [8, 16] was 90, the “Plant response rating, Cupgrass, Woolly” value [8, 17] was 90 and the “Plant response rating, Nutsedge, Yellow” value [9, 14] was 10. The “Nutsedge, Yellow plant response rating (0 to 100 scale)” value [9, 15] was 15, the “Plant response rating, Nutsedge, Yellow” value [9, 16] was 40 and the “Plant response rating, Nutsedge, Yellow” value [9, 17] was 60. The “Plant response rating, Surinam Grass” value [10, 14] was 65, the “Surinam Grass plant response rating (0 to 100 scale)” value [10, 15] was 65 and the “Plant response rating, Surinam Grass” value [10, 16] was 95. For the same compound, the “Plant response rating, Surinam Grass” value [10, 17] was 100, the “Plant response rating, Blackgrass” value [11, 14] was 30 and the “Blackgrass plant response rating (0 to 100 scale)” value [11, 15] was 35. The “Plant response rating, Blackgrass” value [11, 16] was 35, the “Plant response rating, Blackgrass” value [11, 17] was 50 and the “Barnyardgrass plant response rating” value [12, 18] was 50. For the same compound, the “Plant response rating, Barnyardgrass” value [12, 19] was 80, the “Plant response rating, Barnyardgrass” value [12, 20] was 0 and the “Plant response rating, Barnyardgrass” value [12, 21] was 10. For the same compound, the “Pigweed plant response rating” value [13, 18] was 100, the “Plant response rating, Pigweed” value [13, 19] was 100 and the “Plant response rating, Pigweed” value [13, 20] was 60. For the same compound, the “Plant response rating, Pigweed” value [13, 21] was 100.
For `Cc1ccc(C)c(-n2c(-c3ccccc3)ncc(C(=O)C3=C(O)CCCC3=O)c2=O)c1` [Compound 29], the “Plant response rating, Goosegrass” value [1, 22] was 100, the “Plant response rating, Goosegrass” value [1, 23] was 85 and the “Plant response rating, Goosegrass” value [1, 16] was 85. The “Goosegrass plant response rating” value [1, 24] was 95, the “Plant response rating, Goosegrass” value [1, 25] was 95 and the “Goosegrass plant response rating” value [1, 26] was 100. For the same compound, the “Plant response rating, Crabgrass, Large” value [2, 22] was 100, the “Plant response rating, Crabgrass, Large” value [2, 27] was 45 and the “Plant response rating, Crabgrass, Large” value [2, 23] was 50. For the same compound, the “Plant response rating, Crabgrass, Large” value [2, 16] was 55, the “Crabgrass, Large plant response rating” value [2, 24] was 80 and the “Plant response rating, Crabgrass, Large” value [2, 25] was 98. The “Plant response rating, Crabgrass, Large” value [2, 28] was 100, the “Crabgrass, Large plant response rating” value [2, 26] was 100 and the “Plant response rating, Morningglory” value [3, 22] was 100. The “Plant response rating, Morningglory” value [3, 23] was 70, the “Plant response rating, Morningglory” value [3, 16] was 80 and the “Morningglory plant response rating” value [3, 24] was 98. The “Plant response rating, Morningglory” value [3, 25] was 100, the “Plant response rating, Morningglory” value [3, 28] was 100 and the “Morningglory plant response rating” value [3, 26] was 100. For the same compound, the “Plant response rating, Wheat” value [4, 22] was 0, the “Plant response rating, Wheat” value [4, 23] was 0 and the “Plant response rating, Wheat” value [4, 16] was 10. The “Wheat plant response rating” value [4, 24] was 40, the “Plant response rating, Wheat” value [4, 25] was 0 and the “Plant response rating, Wheat” value [4, 28] was 0. For the same compound, the “Wheat plant response rating” value [4, 26] was 0, the “Plant response rating, Ryegrass, Italian” value [5, 22] was 40 and the “Plant response rating, Ryegrass, Italian” value [5, 23] was 20. For the same compound, the “Plant response rating, Ryegrass, Italian” value [5, 16] was 40, the “Ryegrass, Italian plant response rating” value [5, 24] was 45 and the “Plant response rating, Ryegrass, Italian” value [5, 25] was 0. For the same compound, the “Plant response rating, Ryegrass, Italian” value [5, 28] was 0, the “Ryegrass, Italian plant response rating” value [5, 26] was 10 and the “Plant response rating, Velvetleaf” value [6, 22] was 100. The “Plant response rating, Velvetleaf” value [6, 23] was 55, the “Plant response rating, Velvetleaf” value [6, 16] was 80 and the “Velvetleaf plant response rating” value [6, 24] was 98. The “Plant response rating, Velvetleaf” value [6, 25] was 10, the “Plant response rating, Velvetleaf” value [6, 28] was 90 and the “Velvetleaf plant response rating” value [6, 26] was 100. For the same compound, the “Plant response rating, Bromegrass, Downy” value [7, 22] was 5, the “Plant response rating, Bromegrass, Downy” value [7, 27] was 5 and the “Plant response rating, Bromegrass, Downy” value [7, 23] was 10. For the same compound, the “Plant response rating, Bromegrass, Downy” value [7, 16] was 40, the “Bromegrass, Downy plant response rating” value [7, 24] was 45 and the “Plant response rating, Bromegrass, Downy” value [7, 25] was 0. The “Plant response rating, Bromegrass, Downy” value [7, 28] was 0, the “Bromegrass, Downy plant response rating” value [7, 26] was 0 and the “Plant response rating, Cupgrass, Woolly” value [8, 22] was 90. The “Plant response rating, Cupgrass, Woolly” value [8, 27] was 80, the “Plant response rating, Cupgrass, Woolly” value [8, 23] was 85 and the “Plant response rating, Cupgrass, Woolly” value [8, 16] was 85. The “Cupgrass, Woolly plant response rating” value [8, 24] was 85, the “Plant response rating, Cupgrass, Woolly” value [8, 25] was 5 and the “Plant response rating, Cupgrass, Woolly” value [8, 28] was 10. For the same compound, the “Cupgrass, Woolly plant response rating” value [8, 26] was 55, the “Plant response rating, Nutsedge, Yellow” value [9, 22] was 85 and the “Plant response rating, Nutsedge, Yellow” value [9, 23] was 50. The “Plant response rating, Nutsedge, Yellow” value [9, 16] was 70, the “Nutsedge, Yellow plant response rating” value [9, 24] was 70 and the “Plant response rating, Nutsedge, Yellow” value [9, 25] was 0. For the same compound, the “Plant response rating, Nutsedge, Yellow” value [9, 28] was 30, the “Nutsedge, Yellow plant response rating” value [9, 26] was 60 and the “Plant response rating, Surinam Grass” value [10, 22] was 95. For the same compound, the “Plant response rating, Surinam Grass” value [10, 23] was 50, the “Plant response rating, Surinam Grass” value [10, 16] was 70 and the “Surinam Grass plant response rating” value [10, 24] was 85. For the same compound, the “Plant response rating, Surinam Grass” value [10, 25] was 0, the “Plant response rating, Surinam Grass” value [10, 28] was 20 and the “Surinam Grass plant response rating” value [10, 26] was 90. For the same compound, the “Plant response rating, Blackgrass” value [11, 22] was 50, the “Plant response rating, Blackgrass” value [11, 27] was 10 and the “Plant response rating, Blackgrass” value [11, 23] was 20. For the same compound, the “Plant response rating, Blackgrass” value [11, 16] was 40, the “Blackgrass plant response rating” value [11, 24] was 50 and the “Plant response rating, Blackgrass” value [11, 25] was 5. The “Plant response rating, Blackgrass” value [11, 28] was 5, the “Blackgrass plant response rating” value [11, 26] was 50 and the “Barnyardgrass plant response rating” value [12, 18] was 20. The “Plant response rating, Barnyardgrass” value [12, 19] was 90, the “Plant response rating, Barnyardgrass” value [12, 20] was 0 and the “Plant response rating, Barnyardgrass” value [12, 21] was 100. For the same compound, the “Pigweed plant response rating” value [13, 18] was 80, the “Plant response rating, Pigweed” value [13, 19] was 100 and the “Plant response rating, Pigweed” value [13, 20] was 50. For the same compound, the “Plant response rating, Pigweed” value [13, 21] was 100.
